Assay results from patent publication US5075449A, “Method of optically resolving (±)-1-(3-pyridylcarbonyl)-5-methyl-2-pyrazoline” (Mitsui Toatsu Chemicals, Inc., priority 1988, dated 1991).

Key:
[1] = literature: Anesthesiology, 47, 285, 1977; Nippon Rinsho, 43, 185, 1985; cited from earlier work
[2] = tested on: infarcted lesions caused by the occlusion of middle cerebral artery in rat; experiment: Effect on cerebral ischemic (infarcted) lesions caused by occlusion of middle cerebral artery in rat; assay type: in vivo, Rat (male Sprague Dawley); conditions: rat MCA occlusion; for Infarcted lesions (ratio of infarcted lesions to total area) / Reduction ratio of infarcted lesions: i.v. infusion 10 mg/kg/hr for 24 hours; for Infarcted lesions (ratio of infarcted lesions to total area): TTC staining, control group 16.1, * P < 0.05, ** P < 0.001 to control; for Reduction ratio of infarcted lesions: infarcted lesions of control group defined as 100%
Experimental: (§1) Rat middle cerebral artery was occluded according to the method of Tamura et. al. (J. Cerebral Blood Flow and Metabolism, 53-60, 1981).
Male Sprague Dawley rats, aged 8 to 10 weeks, were occluded of their left middle cerebral artery under 2% halothane anesthesia. (-)-1-(3-Pyridylcarbonyl)-5-methyl-2-pyrazoline dissolved in 0.9% physiological saline was infused into rats through the caudal vein at a rate of 10 mg/kg/hr for 24 hours. A control group was intraveneously infused with 0.9% physiological saline for 24 hours. Rats were sacrificed to death 24 hours after the occlusion of the middle cerebral artery and brain was excised from each rat. After staining with TTC, the excised brain was cut in 6 identical parts from its top. Cross sections were photographed to measure the ratio of infarcted lesions to total area with a planimeter so that the reduction ratio of infarcted lesions by the drug administration was calculated, provided that the infarcted lesions of the control group was defined as 100%.

[3] = Acute toxicity (LD50), intravenous, rat; assay type: in vivo; conditions: in vivo, iv, mortality up to 72 hours after administration
Experimental: (§2) The drug was intraveneously administered to rats and determined the mortality ratio up to 72 hours after the administration, to calculate 50% lethal dose (LD50) by acute toxicity according to the routine method.

[4] = tested on: cerebral edema caused by the occlusion of rat middle cerebral artery; experiment: Suppression of ischemic cerebral edema caused by occlusion of middle cerebral artery in rat; assay type: in vivo, Rat (male Sprague Dawley); conditions: rat MCA occlusion; for Suppression ratio of cerebral edema: i.v. infusion through caudal vein 3 or 10 mg/kg/hr for 24 hours (dose not given), brain water content at 24 hours, * P < 0.05, ** P < 0.001 to control
Experimental: as §1
Male Sprague Dawley rats, aged 8 to 10 weeks, were occluded of their left middle cerebral artery under 2% halothane anesthesia. (-)-1-(3-Pyridylcarbonyl)-5-methyl-2-pyrazoline dissolved in 0.9% physiological saline was infused into rats through the caudal vein at a rate of 3 or 10 mg/kg/hr for 24 hours. Rats were sacrificed to death 24 hours after the occlusion of the middle cerebral artery and brain was excised from each rat to determine the water contents in the two cerebral hemispheres, left and right, by the wet and dry weighing method. The occlusion of middle cerebral artery was also conducted on the control group of rats, and they were subsequently infused with 0.9% physiological saline for 24 hours similarly in the drug-administered group. The suppressive ratio of cerebral edema was determined by the following equation. [formula] Cl: Water contents in left cerebral hemisphere of control group CR: Water contents in right cerebral hemisphere of control group
SL: Water contents in left cerebral hemisphere of drug-administered group
SR: Water contents in right cerebral hemisphere of drug-administered group

rats = experiment: Acute toxicity (LD50), intravenous, rat; assay type: in vivo; conditions: for Acute toxicity LD50: mortality up to 72 hours after administration, 4320 min
Experimental: as §2

| Compound | Brain protective action / suppression of cerebral edema (in words) [1] | Infarcted lesions (ratio of infarcted lesions to total area) [2] | Reduction ratio of infarcted lesions [2] | LD50 at 72 h [3] | Suppression ratio of cerebral edema [4] | Effect on infarcted area (in words) ([2]; 10 mg/kg/hr for 24 hours) | Acute toxicity (in words) (rats) | Acute toxicity LD50 (rats) | Effect on cerebral edema (in words) [4] |
| --- | --- | --- | --- | --- | --- | --- | --- | --- | --- |
| CCCC(C)C1(CC)C(=O)NC(=O)NC1=O (centres unmarked) [pentobarbital] | protective action of brain against cerebral ischemia |  |  |  |  |  |  |  |  |
| CC1CC=NN1C(=O)c1cccnc1 (racemic) [Racemic modification, (±)-1-(3-Pyridylcarbonyl)-5-methyl-2-pyrazoline] |  | 11.0% | 32.0 | 800 mg/kg | 18.7% |  |  |  |  |
| CC1CC=NN1C(=O)c1cccnc1 (single isomer, unassigned; (-)) [(-)-form, (-)-1-(3-Pyridylcarbonyl)-5-methyl-2-pyrazoline] |  | 8.5% | 48.9 |  | 28.4% | significantly reduced the infarcted area caused by the occlusion of rat middle cerebral artery and it acted more strongly than the racemic modification | less than that of the racemic modification or (+)-form | 1200 mg/kg | significantly depressed cerebral edema caused by the occlusion of the middle cerebral artery in rats and it acted more strongly than the racemic modification or (+)-form |
| CC1CC=NN1C(=O)c1cccnc1 (single isomer, unassigned; (+)) [(+)-form, (+)-1-(3-Pyridylcarbonyl)-5-methyl-2-pyrazoline] |  |  |  |  | 15.7% |  |  | 400 mg/kg |  |
